We go through 2 compounds from publication PMC4412288, “Crystal Structures of the Carboxyl cGMP Binding Domain of the Plasmodium falciparum cGMP-dependent Protein Kinase Reveal a Novel Capping Triad Crucial for Merozoite Egress” (PLoS Pathogens, 2015).

One may read the EC50 as the midpoint of the concentration-response curve.

The subject of test [1] is PfPKG with disabled PfCNB-D. Details: method as in PMID 12817987. The settings on record: disabling PfCNB-D by mutation of a putative cGMP-binding residue; cited from earlier work.
Test [2] concerns the target T1, PfCNB-C (residues 275–428) (Plasmodium falciparum, UniProt Q8I719).
T1 construct: 275–428 for CNB-C; His-tag (pQTEV, TEV site) (N, cleaved yes); made in house; host or cells: E. coli TP2000 (delta-cya)
Description: FP binding measurements, isolated PfCNB-C domain. The source says:
A manually designed construct consisting of PfPKG amino acids 1–853 with codons optimized for expression in E.coli was synthesized at Life Technologies. All PfPKG constructs were ligated into the His-tagged bacterial expression vector, pQTEV [28]. In designing the expression constructs of each CNB, we used the sequence of the cGMP selective CNB-B that we recently reported. The domain boundaries for the individual constructs are: residues 1–173 for CNB-A, 158–294 for CNB-B, 275–428 for CNB-C and 401–542 for CNB-D. All PfPKG proteins were expressed in TP2000 E. coli. The cells were grown at 37 °C to an OD600nm of 0.6, then induced with 0.5 mM IPTG, and grown for an additional 10 hours at 25 °C. Cells were harvested by centrifugation, then resuspended in 50 mM potassium phosphate (pH 7.5), 500 mM NaCl and 1 mM β-mercaptoethanol, and lysed using a cell disruptor (Constant Systems).
The direct fluorescence polarization (FP) assay was performed following the procedure from Moll et al. Measurements were performed in 150 mM NaCl, 20 mM MOPS plus 0.005% (w/v) CHAPS pH 7.0 using the Fusion a-FP microtiter plate reader at room temperature in a 384 well microtiterplate (Perkin Elmer, Optiplate, black). The protein concentration was varied while the concentration of 8-Fluo-cAMP/8-Fluo-cGMP (Biolog Life Science Institute (Bremen, Germany)) was fixed at 1–5 nM. […] The KD values were calculated from sigmoidal dose-response curves.
For competition FP experiments, the protein concentration and the concentration of 8-Fluo-cGMP were fixed to give a polarization signal that was 50% of the maximum value obtained from direct FP measurements. […] FP signals were detected as indicated above. Data were analyzed with GraphPad Prism 5.03 by plotting the polarization signal in mPol against the logarithm of the cyclic nucleotide concentration. The EC50 values were calculated from sigmoidal dose-response curves.

In test [3] the target is T2, PfPKG full regulatory domain (1–542) D533A (Plasmodium falciparum, UniProt Q8I719, D533A).
T2 construct: PfPKG full regulatory domain (1–542); His-tag (pQTEV, TEV site) (N, cleaved yes); made in house; host or cells: E. coli TP2000 (delta-cya)
T2 sequence (Q8I719 1-542 D533A): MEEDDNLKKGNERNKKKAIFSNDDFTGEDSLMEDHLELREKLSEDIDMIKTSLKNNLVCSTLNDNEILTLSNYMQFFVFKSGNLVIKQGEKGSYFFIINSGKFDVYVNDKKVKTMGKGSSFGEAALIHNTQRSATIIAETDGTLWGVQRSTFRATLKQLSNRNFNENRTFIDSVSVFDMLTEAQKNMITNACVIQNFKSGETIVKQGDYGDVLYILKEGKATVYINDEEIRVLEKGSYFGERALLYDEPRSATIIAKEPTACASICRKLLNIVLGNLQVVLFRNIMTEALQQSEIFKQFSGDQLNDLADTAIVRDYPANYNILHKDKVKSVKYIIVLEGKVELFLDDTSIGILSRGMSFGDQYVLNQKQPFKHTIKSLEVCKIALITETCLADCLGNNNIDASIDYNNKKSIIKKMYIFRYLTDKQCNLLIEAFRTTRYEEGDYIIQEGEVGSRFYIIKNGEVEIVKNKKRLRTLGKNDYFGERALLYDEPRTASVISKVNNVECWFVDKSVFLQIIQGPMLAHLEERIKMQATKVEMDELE
Format: binding. The settings on record: read-out: EC50 ± SEM (n) competition experiments. As to the method:
(§1) Measurements were performed in 150 mM NaCl, 20 mM MOPS plus 0.005% (w/v) CHAPS pH 7.0 using the Fusion a-FP microtiter plate reader at room temperature in a 384 well microtiterplate (Perkin Elmer, Optiplate, black). […] The KD values were calculated from sigmoidal dose-response curves.
(§2) For competition FP experiments, the protein concentration and the concentration of 8-Fluo-cGMP were fixed to give a polarization signal that was 50% of the maximum value obtained from direct FP measurements. […] FP signals were detected as indicated above. […] The EC50 values were calculated from sigmoidal dose-response curves.

The target in test [4] is T3, PfPKG CNB-D (401–542) Wild type (Plasmodium falciparum, UniProt Q8I719).
T3 construct: 401–542 for CNB-D; His-tag (pQTEV, TEV site) (N, cleaved yes); made in house; host or cells: E. coli TP2000 (delta-cya)
T3 sequence (Q8I719 401-542): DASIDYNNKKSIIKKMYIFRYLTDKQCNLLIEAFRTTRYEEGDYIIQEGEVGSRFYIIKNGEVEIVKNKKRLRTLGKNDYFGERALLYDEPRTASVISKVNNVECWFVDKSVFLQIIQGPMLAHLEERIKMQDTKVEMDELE
The class given is binding. The protocol:
as §1, §2

The target of test [5] is T4, PfPKG CNB-D (401–542) Q532A (Plasmodium falciparum, UniProt Q8I719, Q532A).
T4 construct: 401–542 for CNB-D; His-tag (pQTEV, TEV site) (N, cleaved yes); made in house; host or cells: E. coli TP2000 (delta-cya)
The class given is binding. The settings on record: PfCNB-D Q532A; read-out: EC50 ± SEM (n) competition experiments. The protocol: as §1, §2

For test [6], the target named is T5, PfPKG CNB-D (401–542) R484A/Q532A/D533A (Plasmodium falciparum, UniProt Q8I719, D533A/Q532A/R484A).
T5 construct: 401–542 for CNB-D; His-tag (pQTEV, TEV site) (N, cleaved yes); made in house; host or cells: E. coli TP2000 (delta-cya)
T5 sequence (Q8I719 401-542 R484A/Q532A/D533A): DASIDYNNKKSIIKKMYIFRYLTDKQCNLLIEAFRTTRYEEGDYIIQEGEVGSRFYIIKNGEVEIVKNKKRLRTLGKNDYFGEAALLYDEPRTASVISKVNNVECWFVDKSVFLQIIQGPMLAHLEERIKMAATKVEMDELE
The class given is binding. The settings on record: PfCNB-D R484A/Q532A/D533A; read-out: EC50 ± SEM (n) competition experiments. As to the method:
as §1, §2

In test [7] the target is T6, PfPKG full regulatory domain (1–542) Wild type (Plasmodium falciparum, UniProt Q8I719).
T6 construct: PfPKG full regulatory domain (1–542); His-tag (pQTEV, TEV site) (N, cleaved yes); made in house; host or cells: E. coli TP2000 (delta-cya)
The class given is binding. The conditions noted are these: read-out: EC50 ± SEM (n) competition experiments. As to the method:
as §1, §2

Test [8] deals with T7, PfPKG full regulatory domain (1–542) R484A (Plasmodium falciparum, UniProt Q8I719, R484A).
T7 construct: PfPKG full regulatory domain (1–542); His-tag (pQTEV, TEV site) (N, cleaved yes); made in house; host or cells: E. coli TP2000 (delta-cya)
T7 sequence (Q8I719 1-542 R484A): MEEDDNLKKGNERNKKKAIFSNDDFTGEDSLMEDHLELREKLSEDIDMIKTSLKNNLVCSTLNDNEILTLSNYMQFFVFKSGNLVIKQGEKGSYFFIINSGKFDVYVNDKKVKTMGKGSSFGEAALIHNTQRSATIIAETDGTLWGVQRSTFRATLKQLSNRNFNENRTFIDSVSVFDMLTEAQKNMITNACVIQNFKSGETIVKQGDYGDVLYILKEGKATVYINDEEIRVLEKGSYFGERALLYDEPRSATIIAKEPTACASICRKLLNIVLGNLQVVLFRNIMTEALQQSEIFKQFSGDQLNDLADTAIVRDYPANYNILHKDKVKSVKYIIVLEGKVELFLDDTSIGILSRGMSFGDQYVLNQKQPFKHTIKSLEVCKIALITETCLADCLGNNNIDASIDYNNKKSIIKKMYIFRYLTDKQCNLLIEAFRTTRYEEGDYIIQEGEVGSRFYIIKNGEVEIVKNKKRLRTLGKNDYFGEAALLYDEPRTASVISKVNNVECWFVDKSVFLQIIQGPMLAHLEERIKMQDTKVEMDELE
The class given is binding. The conditions noted are these: read-out: EC50 ± SEM (n) competition experiments. The protocol: as §1, §2

The target in test [9] is T8, PfPKG PfCNB-A (residues 1–173) (Plasmodium falciparum, UniProt Q8I719).
T8 construct: residues 1–173 for CNB-A; His-tag (pQTEV, TEV site) (N, cleaved yes); made in house; host or cells: E. coli TP2000 (delta-cya)
T8 sequence (Q8I719 1-173): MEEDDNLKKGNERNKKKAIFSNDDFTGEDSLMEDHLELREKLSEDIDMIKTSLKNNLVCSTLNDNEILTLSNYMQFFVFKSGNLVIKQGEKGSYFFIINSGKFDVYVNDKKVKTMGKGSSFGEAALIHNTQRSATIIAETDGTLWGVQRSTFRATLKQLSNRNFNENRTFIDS
The class given is binding. The conditions noted are these: competition with 8-Fluo-cGMP, read-out: EC50 ± SEM (n) competition measurements. As to the method:
as §1, §2

Test [10] concerns the target T9, PfPKG full regulatory domain (1–542) Q532A (Plasmodium falciparum, UniProt Q8I719, Q532A).
T9 construct: PfPKG full regulatory domain (1–542); His-tag (pQTEV, TEV site) (N, cleaved yes); made in house; host or cells: E. coli TP2000 (delta-cya)
Format: binding. The conditions noted are these: read-out: EC50 ± SEM (n) competition experiments. The protocol:
as §1, §2

In test [11] the target is T10, PfPKG full regulatory domain (1–542) R484A/Q532A/D533A (Plasmodium falciparum, UniProt Q8I719, D533A/Q532A/R484A).
T10 construct: PfPKG full regulatory domain (1–542); His-tag (pQTEV, TEV site) (N, cleaved yes); made in house; host or cells: E. coli TP2000 (delta-cya)
T10 sequence (Q8I719 1-542 R484A/Q532A/D533A): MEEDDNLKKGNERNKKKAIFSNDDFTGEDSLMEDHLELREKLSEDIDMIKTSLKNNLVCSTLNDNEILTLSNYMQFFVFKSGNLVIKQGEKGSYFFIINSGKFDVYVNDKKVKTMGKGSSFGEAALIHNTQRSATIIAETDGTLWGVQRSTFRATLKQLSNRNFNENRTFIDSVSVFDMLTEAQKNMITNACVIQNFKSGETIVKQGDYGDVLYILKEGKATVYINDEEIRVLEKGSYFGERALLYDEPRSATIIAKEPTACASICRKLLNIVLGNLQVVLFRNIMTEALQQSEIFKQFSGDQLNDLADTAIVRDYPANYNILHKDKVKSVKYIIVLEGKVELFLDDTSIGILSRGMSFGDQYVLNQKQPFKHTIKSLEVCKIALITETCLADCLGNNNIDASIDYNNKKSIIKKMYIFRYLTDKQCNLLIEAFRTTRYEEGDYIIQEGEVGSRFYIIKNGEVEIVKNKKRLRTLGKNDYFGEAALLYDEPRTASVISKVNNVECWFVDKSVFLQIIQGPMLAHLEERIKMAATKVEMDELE
The class given is binding. The conditions noted are these: read-out: EC50 ± SEM (n) competition experiments. The protocol: as §1, §2

Test [12] has as its target T11, PfPKG CNB-D (401–542) R484A (Plasmodium falciparum, UniProt Q8I719, R484A).
T11 construct: 401–542 for CNB-D; His-tag (pQTEV, TEV site) (N, cleaved yes); made in house; host or cells: E. coli TP2000 (delta-cya)
The class given is binding. The conditions noted are these: PfCNB-D R484A; read-out: EC50 ± SEM (n) competition experiments. As to the method:
as §1, §2

The target in test [13] is T12, PfPKG CNB-D (401–542) D533A (Plasmodium falciparum, UniProt Q8I719, D533A).
T12 construct: 401–542 for CNB-D; His-tag (pQTEV, TEV site) (N, cleaved yes); made in house; host or cells: E. coli TP2000 (delta-cya)
Format: binding. The settings on record: PfCNB-D D533A; read-out: EC50 ± SEM (n) competition experiments. The protocol: as §1, §2

A further test concerns PfCNB-C. Details: method as in PMID 12817987. The conditions noted are these: cited from earlier work.
The subject of a further test is human PKG Iβ CNB-B. Also on record: method as in PMID 24239458. The conditions noted are these: cited from earlier work.
Another test addresses T13, PfPKG (1-853) D533A (Plasmodium falciparum, UniProt Q8I719, D533A).
T13 construct: full-length PfPKG (residues 1–853); His-tag (pQTEV, TEV site) (N, cleaved yes); made in house; host or cells: E. coli TP2000 (delta-cya)
Format: biochemical. As to the method: (§3) Kinase activity was determined using a microfluidic mobility-shift assay on a Caliper DeskTop Profiler (Caliper Life Sciences, PerkinElmer). […] Reaction mixtures without cyclic nucleotide were used as controls. For electrophoretic separation of substrate and product, a ProfilerPro LabChip (4-sipper mode; Caliper Life Sciences, PerkinElmer) was used under the following conditions: downstream voltage-500 V, upstream voltage-1,900 V with a screening pressure of-1.3 psi.

Another test deals with T14, PfPKG (1-853) Wild Type (Plasmodium falciparum, UniProt Q8I719).
T14 construct: full-length PfPKG (residues 1–853); His-tag (pQTEV, TEV site) (N, cleaved yes); made in house; host or cells: E. coli TP2000 (delta-cya)
T14 sequence (Q8I719 whole entry, the tested form may be a part): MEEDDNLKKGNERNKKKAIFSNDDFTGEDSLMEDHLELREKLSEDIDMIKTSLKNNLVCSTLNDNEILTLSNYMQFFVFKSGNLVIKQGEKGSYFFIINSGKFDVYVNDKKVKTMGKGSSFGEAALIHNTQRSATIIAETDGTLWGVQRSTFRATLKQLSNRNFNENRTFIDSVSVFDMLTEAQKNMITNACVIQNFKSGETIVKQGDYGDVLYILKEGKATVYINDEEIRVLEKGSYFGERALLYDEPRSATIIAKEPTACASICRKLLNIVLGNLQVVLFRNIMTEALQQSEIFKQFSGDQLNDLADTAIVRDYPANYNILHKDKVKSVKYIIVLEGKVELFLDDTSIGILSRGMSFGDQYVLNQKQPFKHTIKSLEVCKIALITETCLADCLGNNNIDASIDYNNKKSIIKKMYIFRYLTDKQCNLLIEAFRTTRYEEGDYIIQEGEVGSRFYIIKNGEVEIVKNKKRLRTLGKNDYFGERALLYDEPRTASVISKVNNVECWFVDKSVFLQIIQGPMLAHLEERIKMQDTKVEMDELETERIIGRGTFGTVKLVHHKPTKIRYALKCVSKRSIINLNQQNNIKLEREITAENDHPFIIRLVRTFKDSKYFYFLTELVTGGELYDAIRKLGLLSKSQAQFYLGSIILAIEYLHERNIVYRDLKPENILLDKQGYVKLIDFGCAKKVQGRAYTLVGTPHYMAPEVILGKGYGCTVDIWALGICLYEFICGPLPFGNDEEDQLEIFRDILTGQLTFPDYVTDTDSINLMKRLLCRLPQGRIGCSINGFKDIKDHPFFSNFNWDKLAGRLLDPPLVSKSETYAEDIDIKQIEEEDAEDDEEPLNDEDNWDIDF
The class given is biochemical. As to the method:
as §3

Test [14] has as its target T15, PfPKG (1-853) R484A/Q532A/D533A (Plasmodium falciparum, UniProt Q8I719, D533A/Q532A/R484A).
T15 construct: full-length PfPKG (residues 1–853); His-tag (pQTEV, TEV site) (N, cleaved yes); made in house; host or cells: E. coli TP2000 (delta-cya)
Format: biochemical. The conditions noted are these: triple mutant versus wild type. The protocol:
as §3

Test [15] addresses T16, PfPKG PfCNB-B (residues 158–294) (Plasmodium falciparum, UniProt Q8I719).
T16 construct: 158–294 for CNB-B; His-tag (pQTEV, TEV site) (N, cleaved yes); made in house; host or cells: E. coli TP2000 (delta-cya)
Description: Competition FP assay, isolated PfCNB-B domain. The class given is binding. The conditions noted are these: competition with 8-Fluo-cGMP, read-out: EC50 ± SEM (n) competition measurements. The protocol: as §1, §2

Several values for one entry are separate records, joined by “and”; a condition that tells them apart may be missing. Identical values can stand only once.

T1 sequence (Q8I719 275-428): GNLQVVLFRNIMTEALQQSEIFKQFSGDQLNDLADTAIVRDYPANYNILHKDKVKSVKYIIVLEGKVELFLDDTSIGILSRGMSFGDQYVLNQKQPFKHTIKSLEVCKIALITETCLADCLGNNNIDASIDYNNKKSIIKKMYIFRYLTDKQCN
T13 sequence (Q8I719 whole entry D533A, the tested form may be a part): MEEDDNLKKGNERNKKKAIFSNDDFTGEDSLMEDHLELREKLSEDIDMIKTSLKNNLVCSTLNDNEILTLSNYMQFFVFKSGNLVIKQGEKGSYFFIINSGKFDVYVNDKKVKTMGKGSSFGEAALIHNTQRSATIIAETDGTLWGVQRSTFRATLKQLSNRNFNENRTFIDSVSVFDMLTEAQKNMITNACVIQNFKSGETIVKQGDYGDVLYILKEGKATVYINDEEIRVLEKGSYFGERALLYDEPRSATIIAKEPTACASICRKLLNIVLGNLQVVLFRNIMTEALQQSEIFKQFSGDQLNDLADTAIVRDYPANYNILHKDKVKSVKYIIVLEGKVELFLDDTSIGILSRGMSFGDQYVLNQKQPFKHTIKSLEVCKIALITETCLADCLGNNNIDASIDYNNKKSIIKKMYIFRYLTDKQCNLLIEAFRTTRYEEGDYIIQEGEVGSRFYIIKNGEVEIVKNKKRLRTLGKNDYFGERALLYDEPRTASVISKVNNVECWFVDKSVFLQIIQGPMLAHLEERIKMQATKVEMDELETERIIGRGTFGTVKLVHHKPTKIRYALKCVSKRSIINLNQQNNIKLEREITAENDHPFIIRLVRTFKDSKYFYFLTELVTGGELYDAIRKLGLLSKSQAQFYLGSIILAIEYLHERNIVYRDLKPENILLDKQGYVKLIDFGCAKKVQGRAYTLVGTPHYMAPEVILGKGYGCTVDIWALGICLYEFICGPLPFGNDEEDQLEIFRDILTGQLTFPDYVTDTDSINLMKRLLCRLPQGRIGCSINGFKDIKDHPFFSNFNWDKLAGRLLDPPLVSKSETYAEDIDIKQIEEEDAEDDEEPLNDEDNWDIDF
T16 sequence (Q8I719 158-294): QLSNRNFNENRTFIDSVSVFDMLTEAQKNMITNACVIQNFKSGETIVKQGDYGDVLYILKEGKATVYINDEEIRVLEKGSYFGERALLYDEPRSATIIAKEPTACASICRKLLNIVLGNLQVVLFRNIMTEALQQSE
T15 sequence (Q8I719 whole entry R484A/Q532A/D533A, the tested form may be a part): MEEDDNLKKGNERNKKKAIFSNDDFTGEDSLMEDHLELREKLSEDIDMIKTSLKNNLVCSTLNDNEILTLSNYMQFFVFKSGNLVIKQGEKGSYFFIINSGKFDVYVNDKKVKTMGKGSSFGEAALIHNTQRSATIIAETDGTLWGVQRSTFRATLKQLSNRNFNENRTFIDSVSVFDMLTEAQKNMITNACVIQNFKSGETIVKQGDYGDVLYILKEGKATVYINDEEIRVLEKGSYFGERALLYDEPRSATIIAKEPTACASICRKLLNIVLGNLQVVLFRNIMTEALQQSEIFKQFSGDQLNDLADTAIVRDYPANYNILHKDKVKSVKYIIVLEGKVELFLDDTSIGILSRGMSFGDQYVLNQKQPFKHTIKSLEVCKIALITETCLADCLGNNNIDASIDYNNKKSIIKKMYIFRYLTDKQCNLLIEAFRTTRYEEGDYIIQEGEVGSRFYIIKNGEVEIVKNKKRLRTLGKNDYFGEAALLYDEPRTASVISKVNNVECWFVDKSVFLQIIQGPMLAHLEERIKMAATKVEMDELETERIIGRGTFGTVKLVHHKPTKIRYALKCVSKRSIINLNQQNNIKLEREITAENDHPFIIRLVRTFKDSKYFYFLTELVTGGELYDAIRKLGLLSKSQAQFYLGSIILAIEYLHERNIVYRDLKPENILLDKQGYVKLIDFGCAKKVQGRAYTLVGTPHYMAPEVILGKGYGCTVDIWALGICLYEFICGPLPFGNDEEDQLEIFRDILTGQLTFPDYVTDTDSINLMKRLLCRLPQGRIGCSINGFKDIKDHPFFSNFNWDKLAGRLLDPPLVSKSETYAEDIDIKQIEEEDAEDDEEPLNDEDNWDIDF

For `Nc1nc2c(ncn2[C@@H]2O[C@@H]3COP(=O)(O)O[C@H]3[C@H]2O)c(=O)[nH]1` [cGMP, Cyclic GMP], the “increase in the activation constant for cGMP (Ka:cGMP)” value in [1] is listed as 10 fold. Moreover, the cGMP binding result in test [2] is reported as “little to no binding”; in the test on PfCNB-C, “could not be detected”. In addition, the EC50 is 610 ± 50 nM in [3]; 38 nM and 37.8 nM in [4] (PfCNB-D wild type, competition with 8-Fluo-cGMP, read-out: EC50 ± SEM (n) competition experiments); 2400 ± 100 nM in [5]; 7000 nM and 7200 nM in test [6]; 79 ± 4 nM in test [7]; 960 ± 20 nM in test [8]. Besides, the EC50 in test [9] was 1000 nM; in test [10], 2200 ± 100 nM; in [11], 1400 ± 100 nM; in [12] it was 3200 ± 400 nM; in [13], 760 ± 40 nM; with human PKG Iβ CNB-B, 215 nM. For the same compound, in test [15], the concentration for a half-maximal effect (EC50) stood at 1200 nM. The “selectivity for cGMP” value in test [4] (PfCNB-D, cGMP over cAMP) is reported as “over 190 fold”. Also, the “Ka ± SEM (n), activation constant” value on PfPKG (1-853) D533A stood at 330 nM; on PfPKG (1-853) Wild Type, 66 nM. In addition, in test [14], the “increase of Ka:cGMP on mutating all three residues” value is “over 28 fold”.

As for `Nc1ncnc2c1nc(SCCNC(=S)Nc1ccc(-c3c4ccc(=O)cc-4oc4cc(O)ccc34)c(C(=O)O)c1)n2C1OC2COP(=O)(O)OC2C1O` (stereo not drawn) [8-Fluo-cAMP], in test [2], the “affinity of PfCNB-C for the fluorescent nucleotide” value is “very weak affinity”.
